Values after ≈ are worked out from the molar mass of the structure shown. Where two headings read alike, the source gives them in different places.
Assays:
Type in all cases: cell-based
[1] = tested on: SW620 cells; assay: Cell proliferation assay (SRB), SW620; conditions: for IC50: Homo sapiens, SW-620, 48 h, read-out: CELL IC50 SW620
[2] = tested on: SK-Br-3 cells; assay: Cell proliferation assay (SRB), SK-Br-3; conditions: for IC50: Homo sapiens, SK-BR-3, 48 h, read-out: CELL IC50 SKBr3
[3] = tested on: A431 cells; assay: Cell proliferation assay (SRB), A431; conditions: for IC50: Homo sapiens, A-431, 48 h, read-out: CELL IC50 A431
[4] = molecular target: mouse fibroblast cell line transfected with the HER-2 oncogene (3T3/neu) (UniProt P04626, cells depend on it, species not given); assay: Cell proliferation assay (SRB), 3T3/neu; conditions: for GI50: read-out: CELL IC50 3T3/NEU (converted)
[5] = tested on: MDA-MB-435 cells; assay: Cell proliferation assay (SRB), MDA-MB-435; conditions: for IC50: Homo sapiens, MDA-MB-435, 48 h, read-out: CELL IC50 MDA-MB-435

COc1cc2c(Nc3ccc4cn[nH]c4c3)c(C#N)cnc2cc1OCCCN1CCOCC1 [Example 34, 4-(1H-Indazol-6-ylamino)-6-methoxy-7-(3-morpholin-4-yl-propoxy)-quinoline-3-carbonitrile]
IC50 ([1]; EGFR −, Her-2 −, 2 days, SRB): > 5 µg/mL | IC50 ([2]; EGFR −, Her-2 +++, 2 days, SRB): > 5 µg/mL | IC50 ([3]; EGFR +++, Her-2 +, 2 days, SRB): > 5 µg/mL | GI50 ([4]; EGFR −, Her-2 +++, 2 days, SRB): > 10.9 µM | IC50 ([5]; EGFR −, Her-2 −, 2 days, SRB): > 5 µg/mL

COc1cc2ncc(C#N)c(Nc3ccc(Sc4nccn4C)c(Cl)c3)c2cc1[N+](=O)[O-] [Example 35, 4-({3-chloro-4-[(1-methyl-1H-imidazol-2-yl)sulfanyl]phenyl}amino)-7-methoxy-6-nitro-3-quinolinecarbonitrile]
IC50 ([1]; EGFR −, Her-2 −, 2 days, SRB): 1.55 µg/mL (≈ 3.32 µM) | IC50 ([2]; EGFR −, Her-2 +++, 2 days, SRB): 0.669 µg/mL (≈ 1.43 µM) | IC50 ([3]; EGFR +++, Her-2 +, 2 days, SRB): 2.88 µg/mL (≈ 6.17 µM) | GI50 ([4]; EGFR −, Her-2 +++, 2 days, SRB): 8.76 µM | IC50 ([5]; EGFR −, Her-2 −, 2 days, SRB): 1 µg/mL (≈ 2.14 µM)

4-{3-chloro-4-[(4-oxo-3,4-dihydro-2-quinazolinyl)sulfanyl]anilino}-7-methoxy-6-hydro-2-quinazolinyl)sulfanyl]anilino}-7-methoxy-6-nitro-3-quinolinecarbonitrile [Example 44]
CELL IC50 SW620 [1]: 1.96 µg/mL | CELL IC50 SKBr3 [2]: 4.54 µg/mL | CELL IC50 A431 [3]: 2.28 µg/mL | CELL IC50 3T3/NEU ([4]; mouse fibroblast cell line transfected with the her-2 oncogene (3t3/neu)): 4.54 µg/mL | CELL IC50 MDA-MB-435 [5]: >5 µg/mL

COc1cc2ncc(C#N)c(Nc3ccc(Sc4nc5ccccc5c(=O)[nH]4)c(Cl)c3)c2cc1N [Example 45]
CELL IC50 SW620 ([1]; EGFR −, Her-2 −, 2 days, SRB): 4.66 µg/mL | CELL IC50 SKBr3 ([2]; EGFR −, Her-2 +++, 2 days, SRB): 2.15 µg/mL | CELL IC50 A431 ([3]; EGFR +++, Her-2 +, 2 days, SRB): 1.22 µg/mL | CELL IC50 3T3/NEU ([4]; EGFR −, Her-2 +++, 2 days, SRB): 1.88 µg/mL | CELL IC50 MDA-MB-435 ([5]; EGFR −, Her-2 −, 2 days, SRB): 4.58 µg/mL

CCOc1cc2ncc(C#N)c(Nc3ccc(Sc4nc(C)cc(C)n4)c(Cl)c3)c2cc1N [Example 75, 6-amino-4-{3-chloro-4-[(4,6-dimethyl-2-pyrimidinyl)sulfanyl]anilino}-7-ethoxy-3-quinolinecarbonitrile]
IC50 ([1]; EGFR −, Her-2 −, 2 days, SRB): 1.36 µg/mL (≈ 2.85 µM) | IC50 ([2]; EGFR −, Her-2 +++, 2 days, SRB): 0.98 µg/mL (≈ 2.05 µM) | IC50 ([3]; EGFR +++, Her-2 +, 2 days, SRB): 0.76 µg/mL (≈ 1.59 µM) | GI50 ([4]; EGFR −, Her-2 +++, 2 days, SRB): 4.44 µM | IC50 ([5]; EGFR −, Her-2 −, 2 days, SRB): 1.3 µg/mL (≈ 2.73 µM)

COc1cc2ncc(C#N)c(Nc3ccc(N(Cc4cccnc4)C(C)=O)c(Cl)c3)c2cc1N [Example 49]
CELL IC50 SW620 ([1]; EGFR −, Her-2 −, 2 days, SRB): >5 µg/mL | CELL IC50 SKBr3 ([2]; EGFR −, Her-2 +++, 2 days, SRB): 3.41 µg/mL | CELL IC50 A431 ([3]; EGFR +++, Her-2 +, 2 days, SRB): >5 µg/mL | CELL IC50 3T3/NEU ([4]; EGFR −, Her-2 +++, 2 days, SRB): 2.4 µg/mL | CELL IC50 MDA-MB-435 ([5]; EGFR −, Her-2 −, 2 days, SRB): 3.76 µg/mL

CCOc1cc2ncc(C#N)c(Nc3ccc(Nc4nnc(C(F)(F)F)s4)c(Cl)c3)c2cc1N [Example 59, 6-amino-4-(3-chloro-4-{[5-(trifluoromethyl)-1,3,4-thiadiazol-2-yl]amino}anilino)-7-ethoxy-3-quinolinecarbonitrile]
IC50 ([1]; EGFR −, Her-2 −, 2 days, SRB): 1.38 µg/mL (≈ 2.73 µM) | IC50 ([2]; EGFR −, Her-2 +++, 2 days, SRB): 0.551 µg/mL (≈ 1.09 µM) | IC50 ([3]; EGFR +++, Her-2 +, 2 days, SRB): > 5 µg/mL | GI50 ([4]; EGFR −, Her-2 +++, 2 days, SRB): > 9.88 µM | IC50 ([5]; EGFR −, Her-2 −, 2 days, SRB): 0.91 µg/mL (≈ 1.8 µM)

COc1cc2ncc(C#N)c(Nc3ccc(-n4ccnc4)c(Cl)c3)c2cc1N [Example 42]
CELL IC50 SW620 ([1]; EGFR −, Her-2 −, 2 days, SRB): 5.99 µg/mL | CELL IC50 SKBr3 ([2]; EGFR −, Her-2 +++, 2 days, SRB): 1.73 µg/mL | CELL IC50 A431 ([3]; EGFR +++, Her-2 +, 2 days, SRB): 1.63 µg/mL | CELL IC50 3T3/NEU ([4]; EGFR −, Her-2 +++, 2 days, SRB): 0.53 µg/mL | CELL IC50 MDA-MB-435 ([5]; EGFR −, Her-2 −, 2 days, SRB): 1.27 µg/mL

COc1cc2ncc(C#N)c(Nc3ccc(N(Cc4cccnc4)C(C)=O)c(Cl)c3)c2cc1NC(C)=O [Example 50]
CELL IC50 SW620 ([1]; EGFR −, Her-2 −, 2 days, SRB): >5 µg/mL | CELL IC50 SKBr3 ([2]; EGFR −, Her-2 +++, 2 days, SRB): 3.94 µg/mL | CELL IC50 A431 ([3]; EGFR +++, Her-2 +, 2 days, SRB): 3.68 µg/mL | CELL IC50 3T3/NEU ([4]; EGFR −, Her-2 +++, 2 days, SRB): >5 µg/mL | CELL IC50 MDA-MB-435 ([5]; EGFR −, Her-2 −, 2 days, SRB): >5 µg/mL

CCOc1cc2ncc(C#N)c(Nc3ccc(Sc4nc(C)cc(C)n4)c(Cl)c3)c2cc1[N+](=O)[O-] [Example 74, 4-{3-chloro-4-[(4,6-dimethyl-2-pyrimidinyl)sulfanyl]anilino}-7-ethoxy-6-nitro-3-quinolinecarbonitrile]
IC50 ([1]; EGFR −, Her-2 −, 2 days, SRB): > 5 µg/mL | IC50 ([2]; EGFR −, Her-2 +++, 2 days, SRB): > 5 µg/mL | IC50 ([3]; EGFR +++, Her-2 +, 2 days, SRB): > 5 µg/mL | GI50 ([4]; EGFR −, Her-2 +++, 2 days, SRB): > 9.86 µM | IC50 ([5]; EGFR −, Her-2 −, 2 days, SRB): 4.1 µg/mL (≈ 8.09 µM)

CCOc1cc2ncc(C#N)c(Nc3ccc(Cn4ccnc4)c(Cl)c3)c2cc1NC(=O)/C=C/CN(C)C [Example 62, (E)-N-{4-[3-chloro-4-(1H-imidazol-1-ylmethyl)anilino]-3-cyano-7-ethoxy-6-quinolinyl}-4-(dimethylamino)-2-butenamide]
IC50 ([1]; EGFR −, Her-2 −, 2 days, SRB): 3.8 µg/mL (≈ 7.17 µM) | IC50 ([2]; EGFR −, Her-2 +++, 2 days, SRB): 0.045 µg/mL (≈ 0.0849 µM) | IC50 [3]: 0.95 µg/mL (≈ 1.79 µM) | GI50 ([4]; EGFR −, Her-2 +++, 2 days, SRB): 1.87 µM | IC50 ([5]; EGFR −, Her-2 −, 2 days, SRB): 2.1 µg/mL (≈ 3.96 µM)

CCOc1cc2ncc(C#N)c(Nc3ccc(Sc4nccc(C)n4)c(Cl)c3)c2cc1N [Example 64, 6-amino-4-{3-chloro-4-[(4-methyl-2-pyrimidinyl)sulfanyl]anilino}-7-ethoxy-3-quinolinecarbonitrile]
IC50 ([1]; EGFR −, Her-2 −, 2 days, SRB): 2 µg/mL (≈ 4.32 µM) | IC50 ([2]; EGFR −, Her-2 +++, 2 days, SRB): > 5 µg/mL | IC50 ([3]; EGFR +++, Her-2 +, 2 days, SRB): 1.53 µg/mL (≈ 3.3 µM) | GI50 ([4]; EGFR −, Her-2 +++, 2 days, SRB): 6.54 µM | IC50 ([5]; EGFR −, Her-2 −, 2 days, SRB): 1.8 µg/mL (≈ 3.89 µM)
